{"source": "patent EP0745595A1", "about": "“3-(3-Aryloxyphenyl)-1-(substituted methyl)-s-triazine-2,4,6-oxo or thiotrione herbicidal agents” (American Cyanamid Company, priority 1995, dated 1996);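 on CHEAL: higher means more injury with 8 approaching complete kill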;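 on TRZAWO: higher means more injury with 8 approaching complete kill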;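 on ZEAMX: higher means more injury with 8 approaching complete kill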", "format_in_all_cases": "in vivo", "key": {"[1]": {"system": "ABUTILON THEOPHRASTI, MEDIC.", "experiment": "Postemergence herbicidal evaluation, ABUTH (Velvetleaf);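 further: higher means more injury with 8 approaching complete kill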", "outline": "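This postemergence herbicide test used two-week-old velvetleaf seedlings grown in jiffy flats. Each compound was sprayed at 40 psi as a dispersion in 50/50 acetone/water with 0.5% TWEEN®20 surfactant. Plants then received routine greenhouse care. After four to five weeks, injury was scored visually on a 0-9 scale against a control, and replicate tests were averaged.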"}, "[2]": {"system": "AMBROSIA ARTEMISIIFOLIA, L.", "experiment": "Postemergence herbicidal evaluation, AMBEL (Ragweed, Common);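 further: higher means more injury with 8 approaching complete kill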", "outline": "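Postemergence herbicidal activity on AMBEL (common ragweed) was assessed on two-week-old seedlings grown in jiffy flats. Treatment solutions of 50/50 acetone/water with 0.5% TWEEN®20 surfactant were sprayed at 40 psi. After four to five weeks in the greenhouse, plants were scored 0-9 against a control for stand, vigor, malformation, size, chlorosis and overall appearance, with multiple tests averaged.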"}, "CASSIA OBTUSIFOLIA, L.": {"system": "CASSIA OBTUSIFOLIA, L.", "experiment": "Postemergence herbicidal evaluation, CASOB (Sicklepod);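 further: higher means more injury with 8 approaching complete kill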", "parameters": "key to CASOB rating / Herbicidal effect rating, CASOB / CASOB: 0-9 visual rating scale vs untreated control", "outline": "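Postemergence foliar spray at approximately 0.125–0.500 kg/ha onto two-week seedlings; greenhouse hold, then 0–9 visual injury rating after 4–5 weeks.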"}, "CHENOPODIUM ALBUM, L. [3]": {"system": "CHENOPODIUM ALBUM, L.", "experiment": "Postemergence herbicidal evaluation, CHEAL (Lambsquarters, Common);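 further: higher means more injury with 8 approaching complete kill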", "outline": "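Postemergence herbicidal activity on Chenopodium album was tested by spraying two-week-old seedlings grown in jiffy flats with compound in acetone/water (50/50) plus 0.5% TWEEN®20, using a 40 psi nozzle. Four to five weeks after treatment, stand, vigor, malformation, size, chlorosis and overall appearance were scored 0-9 relative to controls, with repeat tests averaged.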"}, "IPOMOEA SPP.": {"system": "IPOMOEA SPP.", "experiment": "Postemergence herbicidal evaluation, IPOSS (Morningglory spp.);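 further: higher means more injury with 8 approaching complete kill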", "outline": "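In this greenhouse postemergence herbicide test on Ipomoea spp. (morningglory), compounds in 50/50 acetone/water with 0.5% TWEEN®20 were sprayed at 40 psi onto seedlings about two weeks old grown in jiffy flats. After four to five weeks, injury was scored on a 0-9 scale covering stand, vigor, malformation, size, chlorosis and overall appearance versus control, with repeat tests averaged.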"}, "[4]": {"system": "ECHINOCHLOA CRUS-GALLI, (L) BEAU", "experiment": "Postemergence herbicidal evaluation, ECHCG (Barnyardgrass)", "parameters": "key to ECHCG rating / Herbicidal effect rating, ECHCG / ECHCG: 0-9 visual rating scale vs untreated control", "outline": "(§1)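 Ratings (0-9) reflect visual stand, vigor, malformation, size and chlorosis compared with untreated plants, assessed 4-5 weeks after postemergence spraying. Treatment was applied to roughly two-week-old seedlings at about 0.125-0.500 kg/ha in acetone/water with 0.5% Tween 20; replicate tests were averaged.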"}, "[5]": {"system": "SETARIA VIRIDIS, (L) BEAU", "experiment": "Postemergence herbicidal evaluation, SETVI (Foxtail, Green)", "parameters": "key to SETVI rating / Herbicidal effect rating, SETVI / SETVI: 0-9 visual rating scale vs untreated control", "outline": "as §1"}, "[6]": {"system": "TRITICUM AESTIVUM, CV. APOLLO", "experiment": "Postemergence herbicidal evaluation, TRZAWO (Wheat, Winter, CV. APOLLO)", "outline": "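This greenhouse postemergence test applied compounds to roughly two-week-old wheat seedlings grown in jiffy flats. The spray solution was 50/50 acetone/water with 0.5% TWEEN®20, a polyoxyethylene sorbitan monolaurate, sprayed from a nozzle run at 40 psi. After four to five weeks of standard greenhouse care, injury was scored from 0 to 9 by comparing stand, vigor, malformation, size, chlorosis and overall appearance with a control. Multiple tests were averaged.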"}, "ZEA MAYS L.": {"system": "ZEA MAYS L.", "experiment": "Postemergence herbicidal evaluation, ZEAMX (Corn, Field)", "outline": "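This greenhouse postemergence test treated corn plants about two weeks old. Compounds in a 50/50 acetone/water mixture with 0.5% TWEEN®20 were applied through a spray nozzle at 40 psi. After four to five weeks, injury was scored 0-9 against an untreated control, judging stand, vigor, malformation, size, chlorosis and overall appearance. Repeated tests were averaged.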"}, "CHENOPODIUM ALBUM, L. [7]": {"system": "CHENOPODIUM ALBUM, L.", "experiment": "Preemergence herbicidal evaluation, CHEAL (Lambsquarters, Common)", "outline": "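Seeds mixed with potting soil were planted on about one inch of soil in cups, then sprayed with aqueous acetone solution of test compound at about 0.125 to 0.50 kg per hectare. Plants grown under greenhouse conditions; visual rating on a 0-9 scale versus untreated control at 4-5 weeks.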"}, "[8]": {"system": "ORYZA SATIVA, L. TEBONNET", "experiment": "Rice tolerance to post-transplant applications under flooded paddy conditions, ORYSAT (Rice, Tebonnet)", "details": "post-transplanted rice", "outline": "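Visual 0-9 rating against untreated control (stand, vigor, malformation, size, chlorosis, overall appearance), taken 3-4 weeks after treatment. Flooded silt loam, water at 1.5-3 cm; two 10-day-old seedlings per pot; compound applied to flooded soil surface 3 days post-transplant at ~0.5-0.063 kg/ha.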"}}, "data": [{"molecule": "Cn1c(=O)[nH]c(=O)n(-c2cc(Oc3ccc(C(F)(F)F)cc3Cl)ccc2Cl)c1=O", "note": "[F, reference compound]", "values": [{"measurement": "ABUTH", "setting": "[1]; Rate 0.016 kg/ha", "value": 4.0}, {"measurement": "ABUTH", "setting": "[1]; Rate 0.032 kg/ha", "value": 4.0}, {"measurement": "ABUTH", "setting": "[1]; Rate 0.063 kg/ha", "value": 5.0}, {"measurement": "ABUTH", "setting": "[1]; Rate 0.125 kg/ha", "value": 5.0}, {"measurement": "ABUTH", "setting": "[1]; Rate 0.250 kg/ha", "value": 7.0}, {"measurement": "ABUTH", "setting": "[1]; Rate 0.500 kg/ha", "value": 9.0}, {"measurement": "AMBEL", "setting": "[2]; Rate 0.016 kg/ha", "value": 2.0}, {"measurement": "AMBEL", "setting": "[2]; Rate 0.032 kg/ha", "value": 3.0}, {"measurement": "AMBEL", "setting": "[2]; Rate 0.063 kg/ha", "value": 6.0}, {"measurement": "AMBEL", "setting": "[2]; Rate 0.125 kg/ha", "value": 6.0}, {"measurement": "AMBEL", "setting": "[2]; Rate 0.250 kg/ha", "value": 6.0}, {"measurement": "AMBEL", "setting": "[2]; Rate 0.500 kg/ha", "value": 7.0}, {"measurement": "CASOB", "setting": "CASSIA OBTUSIFOLIA, L.; Rate 0.016 kg/ha", "value": 2.0}, {"measurement": "CASOB", "setting": "CASSIA OBTUSIFOLIA, L.; Rate 0.032 kg/ha", "value": 4.0}, {"measurement": "CASOB", "setting": "CASSIA OBTUSIFOLIA, L.; Rate 0.063 kg/ha", "value": 5.0}, {"measurement": "CASOB", "setting": "CASSIA OBTUSIFOLIA, L.; Rate 0.125 kg/ha", "value": 8.0}, {"measurement": "CASOB", "setting": "CASSIA OBTUSIFOLIA, L.; Rate 0.250 kg/ha", "value": 9.0}, {"measurement": "CASOB", "setting": "CASSIA OBTUSIFOLIA, L.; Rate 0.500 kg/ha", "value": 6.5}, {"measurement": "CHEAL", "setting": "CHENOPODIUM ALBUM, L. [3]; Rate 0.016 kg/ha", "value": 4.0}, {"measurement": "CHEAL", "setting": "CHENOPODIUM ALBUM, L. [3]; Rate 0.032 kg/ha", "value": 5.0}, {"measurement": "CHEAL", "setting": "CHENOPODIUM ALBUM, L. [3]; Rate 0.063 kg/ha", "value": 6.0}, {"measurement": "CHEAL", "setting": "CHENOPODIUM ALBUM, L. [3]; Rate 0.125 kg/ha", "value": 8.0}, {"measurement": "CHEAL", "setting": "CHENOPODIUM ALBUM, L. [3]; Rate 0.250 kg/ha", "value": 9.0}, {"measurement": "CHEAL", "setting": "CHENOPODIUM ALBUM, L. [3]; Rate 0.500 kg/ha", "value": 9.0}, {"measurement": "IPOSS", "setting": "IPOMOEA SPP.; Rate 0.016 kg/ha", "value": 3.0}, {"measurement": "IPOSS", "setting": "IPOMOEA SPP.; Rate 0.032 kg/ha", "value": 4.0}, {"measurement": "IPOSS", "setting": "IPOMOEA SPP.; Rate 0.063 kg/ha", "value": 6.0}, {"measurement": "IPOSS", "setting": "IPOMOEA SPP.; Rate 0.125 kg/ha", "value": 5.0}, {"measurement": "IPOSS", "setting": "IPOMOEA SPP.; Rate 0.250 kg/ha", "value": 6.0}, {"measurement": "IPOSS", "setting": "IPOMOEA SPP.; Rate 0.500 kg/ha", "value": 7.0}, {"measurement": "ECHCG", "setting": "[4]; Rate 0.016 kg/ha", "value": 0.0}, {"measurement": "ECHCG", "setting": "[4]; Rate 0.032 kg/ha", "value": 0.0}, {"measurement": "ECHCG", "setting": "[4]; Rate 0.063 kg/ha", "value": 0.0}, {"measurement": "ECHCG", "setting": "[4]; Rate 0.125 kg/ha", "value": 1.0}, {"measurement": "ECHCG", "setting": "[4]; Rate 0.250 kg/ha", "value": 2.0}, {"measurement": "ECHCG", "setting": "[4]; Rate 0.500 kg/ha", "value": 2.0}, {"measurement": "SETVI", "setting": "[5]; Rate 0.016 kg/ha", "value": 0.0}, {"measurement": "SETVI", "setting": "[5]; Rate 0.032 kg/ha", "value": 1.0}, {"measurement": "SETVI", "setting": "[5]; Rate 0.063 kg/ha", "value": 3.0}, {"measurement": "SETVI", "setting": "[5]; Rate 0.125 kg/ha", "value": 2.0}, {"measurement": "SETVI", "setting": "[5]; Rate 0.250 kg/ha", "value": 3.0}, {"measurement": "SETVI", "setting": "[5]; Rate 0.500 kg/ha", "value": 3.0}, {"measurement": "TRZAWO", "setting": "[6]; Rate 0.016 kg/ha", "value": 1.5}, {"measurement": "TRZAWO", "setting": "[6]; Rate 0.032 kg/ha", "value": 1.5}, {"measurement": "TRZAWO", "setting": "[6]; Rate 0.063 kg/ha", "value": 2.5}, {"measurement": "TRZAWO", "setting": "[6]; Rate 0.125 kg/ha", "value": 3.0}, {"measurement": "TRZAWO", "setting": "[6]; Rate 0.250 kg/ha", "value": 3.5}, {"measurement": "TRZAWO", "setting": "[6]; Rate 0.500 kg/ha", "value": 3.5}, {"measurement": "ZEAMX", "setting": "ZEA MAYS L.; Rate 0.016 kg/ha", "value": 1.5}, {"measurement": "ZEAMX", "setting": "ZEA MAYS L.; Rate 0.032 kg/ha", "value": 2.0}, {"measurement": "ZEAMX", "setting": "ZEA MAYS L.; Rate 0.063 kg/ha", "value": 2.5}, {"measurement": "ZEAMX", "setting": "ZEA MAYS L.; Rate 0.125 kg/ha", "value": 3.0}, {"measurement": "ZEAMX", "setting": "ZEA MAYS L.; Rate 0.250 kg/ha", "value": 4.0}, {"measurement": "ZEAMX", "setting": "ZEA MAYS L.; Rate 0.500 kg/ha", "value": 4.0}, {"measurement": "CHEAL", "setting": "CHENOPODIUM ALBUM, L. [7]; Rate 0.063 kg/ha", "value": 9.0}, {"measurement": "CHEAL", "setting": "CHENOPODIUM ALBUM, L. [7]; Rate 0.125 kg/ha", "value": 9.0}, {"measurement": "CHEAL", "setting": "CHENOPODIUM ALBUM, L. [7]; Rate 0.250 kg/ha", "value": 9.0}, {"measurement": "CHEAL", "setting": "CHENOPODIUM ALBUM, L. [7]; Rate 0.500 kg/ha", "value": 9.0}, {"measurement": "ORYSAT", "setting": "[8]; Rate 0.031 kg/ha", "value": 0.0}, {"measurement": "ORYSAT", "setting": "[8]; Rate 0.063 kg/ha", "value": 0.0}, {"measurement": "ORYSAT", "setting": "[8]; Rate 0.125 kg/ha", "value": 1.0}, {"measurement": "ORYSAT", "setting": "[8]; Rate 0.250 kg/ha", "value": 2.0}]}]}
